# Where a SMILES comes first, the peptide text is derived from it.
# Legend:
# Conditions in all cases: 10°C
# [1] = target: T1, N-SH2 domain of PI3K, I17V variant (Homo sapiens, UniProt P27986, I338V); test: Stopped-flow binding kinetics, N-SH2 I17V
# T1 construct: made in house
# Method: (§1) N-SH2 wild-type and all the site-directed variants were expressed and purified as described previously ([Visconti et al., 2019]). All the mutants were obtained using a QuickChange Lightning Site-Directed Mutagenesis kit (Agilent technologies), accordingly to manufacturer instructions. Peptides with sequence TNSEDNpYVPMNPG mimicking wild-type Gab2 and TNSEDNpYVPANPG mimicking the M457A variant of Gab2 were purchased from GenScript Biotech Corporation.
# (§2) Binding kinetics experiments were performed using a single-mixing SX-18 stopped-flow instrument (Applied Photophysics); all binding experiments were conducted in 50 mM Hepes pH 7.4 300 mM NaCl at 10°C. Excitation was at 280 nm and emission was collected using a […] cut-off glass filter. Pseudo-first order binding experiments were performed mixing a constant concentration of dansylated Gab2_448–460 and Gab2_448–460 M457A (1 μM) vs. N-SH2 wt and its mutants at concentrations ranging from […]. For each N-SH2 concentration, usually 5 individual traces were averaged and in all cases the fluorescence time courses obtained was satisfactorily fitted by using a single exponential equation.
# (§3) One of the aims of this study is to depict the molecular details of the interaction between the N-SH2 domain of PI3K and Gab2. A powerful strategy to achieve this goal relies on perturbing the system by producing conservative site-directed variants while monitoring the effect of mutations on the association and dissociation rate constants between the interacting partners (kon and koff respectively). Thus, we designed and successfully produced 21 site-directed variants of the N-SH2 domain and challenged them vs. a peptide mimicking the region of Gab2 ranging from residue 448–460 (Gab2_448–460), containing the pY-X-X-M motif that is specifically recognized by the N-SH2 domain ([Waksman et al., 1992]; [Songyang et al., 1993]). The choise of mutations was designed in analogy to phi-value analysis methodology in protein folding studies ([Fersht and Sato, 2004]). […] To monitor binding by fluorescence, a dansyl group was added at the N-terminus of the peptide. The binding reaction was monitored by stopped-flow experiments following the change in FRET signal, taking advantage of the two Trp residues on the N-SH2 domain in positions 12 and 14 as fluorescence donor and the dansyl group on Gab2_448–460 as acceptor. The experiments were performed in pseudo-first order conditions with Gab2_448–460 at fixed concentration of 1 μM rapidly mixed vs. large excess of N-SH2 wt and its variants, ranging from 4 to 14 μM, in buffer Hepes 50 mM, NaCl 300 mM, pH 7.4, at 10°C.
# (§4) with kon being the slope of the line and koff the intercept with the y-axis. Since indirect calculation of koff obtained by extrapolation is associated with high experimental error, we performed displacement experiments to directly measure koff by challenging a pre-incubated complex of dansylated Gab2_448–460 and N-SH2 domain both at the concentration of 1 μM vs. a large excess of non-dansylated Gab2_448–460 (50 μM). Kinetic parameters extracted from data together with the calculated changes in activation and equilibrium free energies are reported in Table 1. Analysis of kinetic data highlights that T48S, L51A, and L59A variations cause a detectable decrease of the affinity of the domain for Gab2_448–460 of ∼10-fold, affecting both the kon and koff. […] Since L99 residue is part of the binding pocket, this dramatic effect on the binding affinity is expected.
# (§5) SH2 domains bind ligands with a phosphorylated tyrosine in their sequence. The N-SH2 domain of PI3K is known to recognize a specific consensus sequences that present a methionine in position +3 in respect to the phosphotyrosine (M457 in Gab2). […]
# [2] = target: T2, N-SH2 domain of PI3K, V22A variant (Homo sapiens, UniProt P27986, V343A); test: Stopped-flow binding kinetics, N-SH2 V22A
# T2 construct: made in house
# Method: as §1, §2, §3, §4, §5
# [3] = target: T3, N-SH2 domain of PI3K, T76S variant (Homo sapiens, UniProt P27986, T397S); test: Stopped-flow binding kinetics, N-SH2 T76S
# T3 construct: made in house
# Method: as §1, §2, §3, §4, §5
# [4] = target: T4, N-SH2 domain of PI3K, V81A variant (Homo sapiens, UniProt P27986, V402A); test: Stopped-flow binding kinetics, N-SH2 V81A
# T4 construct: made in house
# Method: as §1, §2, §3, §4, §5
# [5] = target: T5, N-SH2 domain of PI3K, P74A variant (Homo sapiens, UniProt P27986, P395A); test: Stopped-flow binding kinetics, N-SH2 P74A
# T5 construct: made in house
# Method: as §1, §2, §3, §4, §5
# [6] = target: T6, N-SH2 domain of PI3K, I60V variant (Homo sapiens, UniProt P27986, I381V); test: Stopped-flow binding kinetics, N-SH2 I60V
# T6 construct: made in house
# Method: as §1, §2, §3, §4, §5
# [7] = target: T7, N-SH2 domain of PI3K, V80A variant (Homo sapiens, UniProt P27986, V401A); test: Stopped-flow binding kinetics, N-SH2 V80A
# T7 construct: made in house
# Method: as §1, §2, §3, §4, §5
# [8] = target: T8, N-SH2 domain of PI3K, L75A variant (Homo sapiens, UniProt P27986, L396A); test: Stopped-flow binding kinetics, N-SH2 L75A
# T8 construct: made in house
# Method: as §1, §2, §3, §4, §5
# [9] = target: T9, N-SH2 domain of PI3K, T50S variant (Homo sapiens, UniProt P27986, T371S); test: Stopped-flow binding kinetics, N-SH2 T50S
# T9 construct: made in house
# Method: as §1, §2, §3, §4, §5
# [10] = target: T10, N-SH2 domain of PI3K, T33S variant (Homo sapiens, UniProt P27986, T354S); test: Stopped-flow binding kinetics, N-SH2 T33S
# T10 construct: made in house
# Method: as §1, §2, §3, §4, §5
# N-SH2 domain of PI3K, WT = target: T11, N-SH2 domain of PI3K, WT (Homo sapiens, UniProt P27986); test: Stopped-flow binding kinetics, N-SH2 WT
# T11 construct: made in house
# Method: as §1, §2, §3, §4, §5
# [11] = target: T12, N-SH2 domain of PI3K, T29S variant (Homo sapiens, UniProt P27986, T350S); test: Stopped-flow binding kinetics, N-SH2 T29S
# T12 construct: made in house
# Method: as §1, §2, §3, §4, §5
# [12] = target: T13, N-SH2 domain of PI3K, L104A variant (Homo sapiens, UniProt P27986, L425A); test: Stopped-flow binding kinetics, N-SH2 L104A
# T13 construct: made in house
# Method: as §1, §2, §3, §4, §5
# [13] = target: T14, N-SH2 domain of PI3K, V101A variant (Homo sapiens, UniProt P27986, V422A); test: Stopped-flow binding kinetics, N-SH2 V101A
# T14 construct: made in house
# Method: as §1, §2, §3, §4, §5
# [14] = target: T15, N-SH2 domain of PI3K, I62V variant (Homo sapiens, UniProt P27986, I383V); test: Stopped-flow binding kinetics, N-SH2 I62V
# T15 construct: made in house
# Method: as §1, §2, §3, §4, §5
# [15] = target: T16, N-SH2 domain of PI3K, A30G variant (Homo sapiens, UniProt P27986, A351G); test: Stopped-flow binding kinetics, N-SH2 A30G
# T16 construct: made in house
# Method: as §1, §2, §3, §4, §5
# [16] = target: T17, N-SH2 domain of PI3K, L51A variant (Homo sapiens, UniProt P27986, L372A); test: Stopped-flow binding kinetics, N-SH2 L51A
# T17 construct: made in house
# Method: as §1, §2, §3, §4, §5
# [17] = displacement experiment, pH 7.4, 300 mM NaCl
# [18] = stopped-flow FRET, 1 μM dansylated peptide, 50 mM Hepes pH 7.4, 300 mM NaCl
# [19] = stopped-flow kinetics, pH 7.4, 300 mM NaCl
# T11 sequence (P27986 333-428 limits assumed): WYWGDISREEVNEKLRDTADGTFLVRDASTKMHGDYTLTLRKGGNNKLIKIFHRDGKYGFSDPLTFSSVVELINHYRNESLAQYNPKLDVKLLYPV
# T10 sequence (P27986 333-428 T354S): as the sequence (P27986 333-428 limits assumed) above, with T22S counted along it
# T8 sequence (P27986 333-428 L396A): as the sequence (P27986 333-428 limits assumed) above, with L64A counted along it
# T14 sequence (P27986 333-428 V422A): as the sequence (P27986 333-428 limits assumed) above, with V90A counted along it
# T13 sequence (P27986 333-428 L425A): as the sequence (P27986 333-428 limits assumed) above, with L93A counted along it
# T3 sequence (P27986 333-428 T397S): as the sequence (P27986 333-428 limits assumed) above, with T65S counted along it
# T17 sequence (P27986 333-428 L372A): as the sequence (P27986 333-428 limits assumed) above, with L40A counted along it
# T9 sequence (P27986 333-428 T371S): as the sequence (P27986 333-428 limits assumed) above, with T39S counted along it
# T5 sequence (P27986 333-428 P395A): as the sequence (P27986 333-428 limits assumed) above, with P63A counted along it
# T2 sequence (P27986 333-428 V343A): as the sequence (P27986 333-428 limits assumed) above, with V11A counted along it
# T7 sequence (P27986 333-428 V401A): as the sequence (P27986 333-428 limits assumed) above, with V69A counted along it
# T15 sequence (P27986 333-428 I383V): as the sequence (P27986 333-428 limits assumed) above, with I51V counted along it
# T4 sequence (P27986 333-428 V402A): as the sequence (P27986 333-428 limits assumed) above, with V70A counted along it
# T6 sequence (P27986 333-428 I381V): as the sequence (P27986 333-428 limits assumed) above, with I49V counted along it
# T12 sequence (P27986 333-428 T350S): as the sequence (P27986 333-428 limits assumed) above, with T18S counted along it
# T16 sequence (P27986 333-428 A351G): as the sequence (P27986 333-428 limits assumed) above, with A19G counted along it
# T1 sequence (P27986 333-428 I338V): as the sequence (P27986 333-428 limits assumed) above, with I6V counted along it
structure (smiles),measurement,setting,value
CC(C)[C@H](NC(=O)[C@H](Cc1ccc(OP(=O)(O)O)cc1)NC(=O)[C@H](CC(N)=O)NC(=O)[C@H](CC(=O)O)NC(=O)[C@H](CCC(=O)O)NC(=O)[C@H](CO)NC(=O)[C@H](CC(N)=O)NC(=O)[C@@H](N)[C@@H](C)O)C(=O)N1CCC[C@H]1C(=O)N[C@@H](C)C(=O)N[C@@H](CC(N)=O)C(=O)N1CCC[C@H]1C(=O)NCC(=O)O [Gab2_448–460 M457A] (HELM PEPTIDE1{T.N.S.E.D.N.[O=C([C@H](Cc1ccc(OP(=O)(O)O)cc1)N[*:1])[*:2]].V.P.A.N.P.G}$$$$V2.0),koff,[1]; [17],90 ± 5 s⁻¹
same,kon,[1]; [18],2.2e+07 ± 2.3e+06 M⁻¹ s⁻¹
same,Kd,[1]; [19],4.3 ± 0.5 µM
same,koff,[2]; [17],170 ± 9 s⁻¹
same,kon,[2]; [18],1.77e+07 ± 2.6e+06 M⁻¹ s⁻¹
same,Kd,[2]; [19],9.7 ± 1.5 µM
same,koff,[3]; [17],100 ± 5 s⁻¹
same,kon,[3]; [18],1.96e+07 ± 2.6e+06 M⁻¹ s⁻¹
same,Kd,[3]; [19],5 ± 0.7 µM
same,koff,[4]; [17],90 ± 5 s⁻¹
same,kon,[4]; [18],2.05e+07 ± 3.8e+06 M⁻¹ s⁻¹
same,Kd,[4]; [19],4.5 ± 0.9 µM
same,koff,[5]; [17],60 ± 3 s⁻¹
same,kon,[5]; [18],2.25e+07 ± 1.9e+06 M⁻¹ s⁻¹
same,Kd,[5]; [19],2.6 ± 0.3 µM
same,koff,[6]; [17],80 ± 4 s⁻¹
same,kon,[6]; [18],1.52e+07 ± 1.5e+06 M⁻¹ s⁻¹
same,Kd,[6]; [19],5 ± 0.6 µM
same,koff,[7]; [17],130 ± 6 s⁻¹
same,kon,[7]; [18],2.23e+07 ± 5.4e+06 M⁻¹ s⁻¹
same,Kd,[7]; [19],5.6 ± 1.4 µM
same,koff,[8]; [17],110 ± 5 s⁻¹
same,kon,[8]; [18],1.88e+07 ± 3.2e+06 M⁻¹ s⁻¹
same,Kd,[8]; [19],5.7 ± 1 µM
same,koff,[9]; [17],140 ± 7 s⁻¹
same,kon,[9]; [18],2.02e+07 ± 2e+06 M⁻¹ s⁻¹
same,Kd,[9]; [19],6.8 ± 0.8 µM
same,koff,[10]; [17],80 ± 4 s⁻¹
same,kon,[10]; [18],2.06e+07 ± 2.9e+06 M⁻¹ s⁻¹
same,Kd,[10]; [19],3.8 ± 0.6 µM
same,koff,"N-SH2 domain of PI3K, WT; displacement of 1 μM complex by 50 μM non-dansylated Gab2_448–460, 50 mM Hepes pH 7.4, 300 mM NaCl",80 ± 4 s⁻¹
same,Kd,"N-SH2 domain of PI3K, WT; from stopped-flow kinetics, pH 7.4, 300 mM NaCl",3.7 ± 0.4 µM
same,kon,"N-SH2 domain of PI3K, WT; stopped-flow FRET, 1 μM dansylated peptide vs excess N-SH2, 50 mM Hepes pH 7.4, 300 mM NaCl, slope of kobs",2.15e+07 ± 2.4e+06 M⁻¹ s⁻¹
same,koff,[11]; [17],80 ± 4 s⁻¹
same,kon,[11]; [18],1.97e+07 ± 2.7e+06 M⁻¹ s⁻¹
same,Kd,[11]; [19],4 ± 0.6 µM
same,koff,[12]; [17],110 ± 6 s⁻¹
same,kon,[12]; [18],2.21e+07 ± 1.4e+06 M⁻¹ s⁻¹
same,Kd,[12]; [19],5.2 ± 0.4 µM
same,koff,[13]; [17],170 ± 9 s⁻¹
same,kon,[13]; [18],1.42e+07 ± 1.7e+06 M⁻¹ s⁻¹
same,Kd,[13]; [19],12 ± 1 µM
same,koff,[14]; [17],120 ± 6 s⁻¹
same,kon,[14]; [18],1.84e+07 ± 1.5e+06 M⁻¹ s⁻¹
same,Kd,[14]; [19],6.7 ± 0.6 µM
same,koff,[15]; [17],90 ± 4 s⁻¹
same,kon,[15]; [18],1.71e+07 ± 2.2e+06 M⁻¹ s⁻¹
same,Kd,[15]; [19],5.1 ± 0.7 µM
same,koff,[16]; [17],160 ± 8 s⁻¹
same,kon,[16]; [18],2.12e+07 ± 3.3e+06 M⁻¹ s⁻¹
same,Kd,[16]; [19],7.6 ± 1.2 µM
